Experimental data reported in PubChem BioAssay AID1259407 (Chemical Carcinogenesis Research Information System (CCRIS), 2018).
Active and inactive are the calls of the source. No rule for the calls is given here.

System: CCRIS mutagenicity, Ames/micronucleus/aberration tests
Assay: CCRIS mutagenicity studies
[1] = Test System: AMES SALMONELLA TYPHIMURIUM, Strain/Indicator: TA98, Metabolic Activation: NONE, Method: STANDARD PLATE
[2] = Test System: AMES SALMONELLA TYPHIMURIUM, Strain/Indicator: TA100, Metabolic Activation: NONE, Method: STANDARD PLATE
[3] = Test System: AMES SALMONELLA TYPHIMURIUM, Strain/Indicator: TA1537, Metabolic Activation: NONE, Method: STANDARD PLATE
[4] = Test System: AMES SALMONELLA TYPHIMURIUM, Strain/Indicator: TA1537, Metabolic Activation: S-9, Method: STANDARD PLATE

SMILES: CNC(=O)Oc1ccc2c(c1)[C@]1(C)CCN(C)[C@@H]1N2C
- mutagenic call (Test System: AMES SALMONELLA TYPHIMURIUM, Strain/Indicator: TA97, Metabolic Activation: LIVER, S-9 (10%), Method: STANDARD PLATE): inactive; negative
- mutagenic call (Test System: AMES SALMONELLA TYPHIMURIUM, Strain/Indicator: TA97, Metabolic Activation: NONE, Method: STANDARD PLATE): inactive; negative
- mutagenic call (Test System: AMES SALMONELLA TYPHIMURIUM, Strain/Indicator: TA97, Metabolic Activation: S-9, Method: STANDARD PLATE): inactive; negative
- mutagenic call (Test System: AMES SALMONELLA TYPHIMURIUM, Strain/Indicator: TA98, Metabolic Activation: LIVER, S-9 (10%), Method: STANDARD PLATE): inactive; negative
- mutagenic call [1]: inactive; negative
- mutagenic call (Test System: AMES SALMONELLA TYPHIMURIUM, Strain/Indicator: TA98, Metabolic Activation: S-9, Method: STANDARD PLATE): inactive; negative
- mutagenic call (Test System: AMES SALMONELLA TYPHIMURIUM, Strain/Indicator: TA100, Metabolic Activation: LIVER, S-9 (10%), Method: STANDARD PLATE): inactive; negative
- mutagenic call [2]: inactive; negative
- mutagenic call (Test System: AMES SALMONELLA TYPHIMURIUM, Strain/Indicator: TA100, Metabolic Activation: S-9, Method: STANDARD PLATE): inactive; negative
- mutagenic call (Test System: AMES SALMONELLA TYPHIMURIUM, Strain/Indicator: TA102, Metabolic Activation: NONE, Method: STANDARD PLATE): inactive; negative
- mutagenic call (Test System: AMES SALMONELLA TYPHIMURIUM, Strain/Indicator: TA102, Metabolic Activation: S-9, Method: STANDARD PLATE): inactive; negative
- mutagenic call (Test System: AMES SALMONELLA TYPHIMURIUM, Strain/Indicator: TA104, Metabolic Activation: LIVER, S-9 (10%), Method: STANDARD PLATE): inactive; negative
- mutagenic call (Test System: AMES SALMONELLA TYPHIMURIUM, Strain/Indicator: TA104, Metabolic Activation: NONE, Method: STANDARD PLATE): inactive; negative
- mutagenic call (Test System: AMES SALMONELLA TYPHIMURIUM, Strain/Indicator: TA104, Metabolic Activation: S-9, Method: STANDARD PLATE): inactive; negative
- mutagenic call (Test System: AMES SALMONELLA TYPHIMURIUM, Strain/Indicator: TA1535, Metabolic Activation: LIVER, S-9 (10%), Method: STANDARD PLATE): inactive; negative
- mutagenic call (Test System: AMES SALMONELLA TYPHIMURIUM, Strain/Indicator: TA1535, Metabolic Activation: NONE, Method: STANDARD PLATE): inactive; negative
- mutagenic call (Test System: AMES SALMONELLA TYPHIMURIUM, Strain/Indicator: TA1535, Metabolic Activation: S-9, Method: STANDARD PLATE): inactive; negative
- mutagenic call (Test System: AMES SALMONELLA TYPHIMURIUM, Strain/Indicator: TA1537, Metabolic Activation: LIVER, S-9 (10%), Method: STANDARD PLATE): inactive; negative
- mutagenic call [3]: inactive; negative
- mutagenic call [4]: inactive; negative
- mutagenic call (Test System: AMES SALMONELLA TYPHIMURIUM, Strain/Indicator: TA1538, Metabolic Activation: LIVER, S-9 (10%), Method: STANDARD PLATE): inactive; negative
- mutagenic call (Test System: AMES SALMONELLA TYPHIMURIUM, Strain/Indicator: TA1538, Metabolic Activation: NONE, Method: STANDARD PLATE): inactive; negative
- mutagenic call (Test System: AMES SALMONELLA TYPHIMURIUM, Strain/Indicator: TA1538, Metabolic Activation: S-9, Method: STANDARD PLATE): inactive; negative

SMILES: CC(=O)N[C@@H](CS/C(F)=C(\F)C(F)(F)F)C(=O)O
- mutagenic call (Test System: AMES SALMONELLA TYPHIMURIUM, Strain/Indicator: TA100, Metabolic Activation: RAT, KIDNEY, S-9, AROCLOR 1254, Method: STANDARD PLATE): inactive; negative

SMILES: NC(Cc1c[nH]c2ccccc12)C(=O)O (stereo unspecified)
- mutagenic call (Test System: AMES SALMONELLA TYPHIMURIUM, Strain/Indicator: TA98, Metabolic Activation: RAT LIVER S-9, CHLOROPHENE, Method: STANDARD PLATE (COMPOUND HEATED AT 250 DEGREES CELSIUS FOR 20 MIN)): inactive; negative

SMILES: Cc1ccc(C)c(N=Nc2c(O)ccc3ccccc23)c1
- mutagenic call [1]: inactive; negative
- mutagenic call (Test System: AMES SALMONELLA TYPHIMURIUM, Strain/Indicator: TA98, Metabolic Activation: RAT, LIVER, S-9, Method: STANDARD PLATE): inactive; negative
- mutagenic call [2]: inactive; negative
- mutagenic call (Test System: AMES SALMONELLA TYPHIMURIUM, Strain/Indicator: TA100, Metabolic Activation: RAT, LIVER, S-9, Method: STANDARD PLATE): inactive; negative

SMILES: O=C(ON=C1C=CC(=NOC(=O)c2ccccc2)C=C1)c1ccccc1
- mutagenic call (End Point: IN VITRO CHROMOSOMAL ABERRATIONS, Test System: CHL CELLS, Metabolic Activation: RAT, LIVER, S-9, SODIUM PHENOBARBITAL AND 5,6-BENZOFLAVONE): inactive; negative
- mutagenic call (Test System: AMES SALMONELLA TYPHIMURIUM, Strain/Indicator: TA98, Metabolic Activation: NONE, Method: PREINCUBATION): active; positive
- mutagenic call (Test System: AMES SALMONELLA TYPHIMURIUM, Strain/Indicator: TA98, Metabolic Activation: RAT LIVER S-9, PHENOBARBITAL AND BETA-NAPHTHOFLAVONE, Method: PREINCUBATION): active; positive
- mutagenic call (Test System: AMES SALMONELLA TYPHIMURIUM, Strain/Indicator: TA100, Metabolic Activation: NONE, Method: PREINCUBATION): inactive; negative
- mutagenic call (Test System: AMES SALMONELLA TYPHIMURIUM, Strain/Indicator: TA100, Metabolic Activation: RAT LIVER S-9, PHENOBARBITAL AND BETA-NAPHTHOFLAVONE, Method: PREINCUBATION): active; positive
- mutagenic call (Test System: AMES SALMONELLA TYPHIMURIUM, Strain/Indicator: TA1535, Metabolic Activation: NONE, Method: PREINCUBATION): inactive; negative
- mutagenic call (Test System: AMES SALMONELLA TYPHIMURIUM, Strain/Indicator: TA1535, Metabolic Activation: RAT LIVER S-9, PHENOBARBITAL AND BETA-NAPHTHOFLAVONE, Method: PREINCUBATION): inactive; negative
- mutagenic call (Test System: AMES SALMONELLA TYPHIMURIUM, Strain/Indicator: TA1537, Metabolic Activation: NONE, Method: PREINCUBATION): inactive; negative
- mutagenic call (Test System: AMES SALMONELLA TYPHIMURIUM, Strain/Indicator: TA1537, Metabolic Activation: RAT LIVER S-9, PHENOBARBITAL AND BETA-NAPHTHOFLAVONE, Method: PREINCUBATION): active; positive
- mutagenic call (Test System: AMES SALMONELLA TYPHIMURIUM, Strain/Indicator: TA1538, Metabolic Activation: NONE, Method: PREINCUBATION): active; positive
- mutagenic call (Test System: AMES SALMONELLA TYPHIMURIUM, Strain/Indicator: TA1538, Metabolic Activation: RAT LIVER S-9, PHENOBARBITAL AND BETA-NAPHTHOFLAVONE, Method: PREINCUBATION): active; positive
- mutagenic call (Test System: E.COLI, Strain/Indicator: WP2UVRA, Metabolic Activation: NONE, Method: PREINCUBATION): inactive; negative
- mutagenic call (Test System: E.COLI, Strain/Indicator: WP2UVRA, Metabolic Activation: RAT LIVER S-9, PHENOBARBITAL AND BETA-NAPHTHOFLAVONE, Method: PREINCUBATION): inactive; negative

SMILES: CCCCOC(N)=O
- mutagenic call (Test System: E. COLI, Strain/Indicator: WP2 UVRA, Metabolic Activation: NONE, Method: FLUCTUATION TEST): inactive; negative

SMILES: COc1cc(O)c2c(c1)C(=O)c1cc(C)cc(O)c1C2=O
- mutagenic call [1]: inactive; negative
- mutagenic call (Test System: AMES SALMONELLA TYPHIMURIUM, Strain/Indicator: TA98, Metabolic Activation: RAT, LIVER, S-9, AROCLOR 1254, Method: STANDARD PLATE): inactive; negative
- mutagenic call [2]: inactive; negative
- mutagenic call (Test System: AMES SALMONELLA TYPHIMURIUM, Strain/Indicator: TA100, Metabolic Activation: RAT, LIVER, S-9, AROCLOR 1254, Method: STANDARD PLATE): inactive; negative
- mutagenic call (Test System: AMES SALMONELLA TYPHIMURIUM, Strain/Indicator: TA102, Metabolic Activation: RAT, LIVER, S-9, AROCLOR 1254, Method: STANDARD PLATE): inactive; negative
- mutagenic call [3]: inactive; negative
- mutagenic call (Test System: AMES SALMONELLA TYPHIMURIUM, Strain/Indicator: TA1537, Metabolic Activation: RAT, LIVER, S-9, AROCLOR 1254, Method: STANDARD PLATE): active; positive
- mutagenic call [4]: active; positive
